Data taken from article PMC8227119, “Urinary Elimination of Ecdysterone and Its Metabolites Following a Single-Dose Administration in Humans” (Metabolites, 2021).
Values joined by “and” are separate entries in the source; they are usually repeats but may differ in a detail not shown here. Identical values can stand only once. Like-named read-outs stand apart in the source and are kept apart here.

Assays:
[1] = Urinary excretion and pharmacokinetics after a single oral dose of 50 mg of pure ecdysterone (LC-MS/MS of urine); format: in vivo, human; conditions: for Subjects in whose post-administration urine the analyte was detected: 12 subjects; for Cmax / half-life / Tmax: both sexes; for Cmax / half-life: human, po, 50 mg; for Tmax: read-out: Tmax (time to maximum urinary concentration); for Cumulative urinary excretion percentage relative to dose, mean / Cumulative urinary excretion percentage relative to dose, range over subjects: percent of the 50 mg dose; for Cumulative urinary excretion percentage relative to dose, mean: mean value; for Cumulative Du (cumulative amount excreted in urine): mean ± SD of 12 subjects (14-deoxy-poststerone n = 10); for Kinetics of urinary elimination: log-linear rate of excretion versus middle-point time; for Difference of cumulative urinary excretion percentage between male and female (T-test): p ≤ 0.05, 5 males, 7 females
Description: The study was approved by the ethical committee of the German Sport University Cologne, and was carried out following the regulations of the Helsinki declaration. Twelve healthy subjects (7 females and 5 males) with a mean age (standard deviation [SD]) of 26 (3.1) y, weight of 74 (12.0) kg, and height of 174 (8.3) cm participated in the study. A single-dose of 50 mg of pure ecdysterone dissolved in 50 cl of alcoholic solution was administered to the subjects. All doses were administered at 9.00 a.m. in the morning. The urine samples were collected one day before (blank samples) and five days after the administration of ecdysterone. Sampling time (h) and urine volume (mL) were recorded. Aliquots of urine samples were stored frozen at −18 °C, until analysis.
Urine samples (200 µL) spiked with 10 µL of the ISTD ponasterone (working solution 10 µg/mL) and diluted to 1 mL with methanol:water (10:90, v/v). The tubes were vortex-mixed and then centrifuged at 9677 RCF for 8 min.
The analysis of ecdysterone and its metabolite in calibration and urine samples was performed by LC–MS/MS on an Agilent 1200 Infinity series, coupled to an Ultivo triple quadrupole tandem MS system, utilizing a Jet Stream electrospray ionization (ESI) source and an Ion Funnel (Agilent Technologies GmbH, Waldronn, Germany).
In this study, the excretion profile, the cumulative amount excreted in urine, and the half-life of ecdysterone and its metabolites, after a single-dose administration of 50 mg of pure ecdysterone were evaluated according to [45].
To obtain the excretion rates, Equation (1) was applied:(1) Erate,i=Ci x Vi/ (ti−ti−1)
For each urine sample, the calculated concentration (Ci, ng/mL) of ecdysterone, 14-deoxy-ecdysterone, and 14-deoxy-poststerone was adjusted as a function of the dilution factor applied (1:5) and of the volume of urine collected (Vi, mL), obtaining the corresponding amount of drug in urine (expressed in ng), which was divided by the interval between the time values of the sampling and the previous sampling (ti − ti−1).
The excretion profile curves of ecdysterone and its metabolites for each subject were then obtained by plotting the calculated rate of excretion values (ng/h) versus time (middle-point of sample collection, hours) or simply the calculated concentrations (ng/mL) versus time (sampling time, hours). The first collected interval started at 0 h after the oral administration of ecdysterone at 9 a.m.
For each sample, the amount of drug excreted in urine was calculated and added to the amount of drug recovered in the previous urine sample to obtain the cumulative urinary drug excretion, which was plotted in a graph versus the sampling time (hours).
The half-life using the elimination rate constant (k) was calculated by applying Equation (2):(2) t1/2=ln(2)/k
Two different methods were used to calculate the elimination rate constant (k). In the rate of excretion method, k was obtained from the slope of the elimination phase of the ln-transformed excretion curve (Figure 6).
In the sigma minus method, k was obtained from the slope of the elimination phase of the ln-transformed remaining drug to be excreted.

[2] = Stability of analytes in spiked urine QC samples (bench-top, long term, freeze-thaw); format: in vitro ADME, human; conditions: vs t = 0, mean n = 3
Description: The stability of ecdysterone and 14-deoxy-ecdysterone in urine was determined in triplicates, using the LQC and HQC samples, which were analyzed immediately and again after storage, as reported in Table 4. Freshly prepared QC samples (at t = 0) were used as baseline to assess the stability.
To evaluate the bench-top stability, LQC and HQC samples were left at room temperature for 4, 8, and 24 h, before analysis. Freeze and thaw stability was evaluated after three cycles for LQC and HQC. Long-term stability was evaluated analyzing the LQC and HQC samples, after storing them at −20 °C for two weeks. The results of the stability tests applied were calculated using the peak area ratio of the analytes to the ISTD, which were compared to the baseline (t = 0). Comparing the mean of the ratios after a specific storage condition to the mean of the ratio at t = 0. The results obtained were all within the ±15%.

[3] = single oral dose 50 mg ecdysterone
[4] = human urine, range over subjects
[5] = human urine, single oral dose 50 mg ecdysterone
[6] = human urine, single oral dose 50 mg ecdysterone, mean ± SD of 12 subjects (14-deoxy-poststerone n = 5)
[7] = human urine, single oral dose 50 mg ecdysterone, range over subjects
[8] = HQC, bench-top room temperature 4 h
[9] = HQC, bench-top room temperature 8 h
[10] = HQC, bench-top room temperature 24 h
[11] = HQC, long term 2 weeks at −20 °C
[12] = LQC, bench-top room temperature 4 h
[13] = LQC, bench-top room temperature 8 h
[14] = LQC, bench-top room temperature 24 h
[15] = LQC, long term 2 weeks at −20 °C
[16] = urine, human urine, single oral dose 50 mg ecdysterone, mean ± SD of 12 subjects (14-deoxy-poststerone n = 5), read-out: Cmax (maximum urinary concentration)
[17] = urine, human urine, single oral dose 50 mg ecdysterone, mean ± SD of 12 subjects (14-deoxy-poststerone n = 5), read-out: Half Life, Rate of Excretion method (converted)
[18] = urine, human urine, single oral dose 50 mg ecdysterone, mean ± SD of 12 subjects (14-deoxy-poststerone n = 5), read-out: Half Life, Sigma-Minus method (converted)
[19] = urine, human urine, single oral dose 50 mg ecdysterone, range over subjects, read-out: Maximum urinary concentration (Cmax), range over subjects

Row | SMILES | Subjects in whose post-administration urine the analyte was detected [1, 3] | Cumulative urinary excretion percentage relative to dose, mean ([1]; human urine) [%] | Cumulative urinary excretion percentage relative to dose, range over subjects [1, 4] | Duration of detectability in urine [1, 5] | Remained detectable in urine until (end of detection window) [1, 5] [h] | Urinary half-life (approximate) [1, 5] | ERmax (maximum urinary rate of excretion) [1, 6] [mg/h] | Midpoint Timemax (maximum urinary middle-point time) [1, 6] [h] | Cumulative Du (cumulative amount excreted in urine) [1, 5] [mg] | Maximum excretion rate, range over subjects [1, 7] [mg/h] | Time of the urine with maximum concentration, range over subjects [1, 7] | Time of the urine with maximum excretion rate, range over subjects [1, 7] [h] | Kinetics of urinary elimination [1] | Difference of cumulative urinary excretion percentage between male and female (T-test) [1] | Stability% [2, 8] [%] | Stability% [2, 9] [%] | Stability% [2, 10] [%] | Stability% ([2]; HQC, freeze-thaw 3 cycles) [%] | Stability% [2, 11] [%] | Stability% [2, 12] [%] | also measured
1 | CC(C)(O)CC[C@@H](O)[C@](C)(O)[C@H]1CC[C@@]2(O)C3=CC(=O)[C@@H]4C[C@@H](O)[C@@H](O)C[C@]4(C)[C@H]3CC[C@]12C [Ecdysterone, 2β,3β,14α,20β,22R,25-hexahydroxy-5β-cholest-7-en-6-one] | all subjects | 18 | 2.8–47.2% | more than 2 days | 58 | three | 1.7 ± 1.4 | 2.1 ± 1.3 | 8.8 ± 6.6 | 0.1 to 4.8 | 2.8 to 8.5 h | 0.4 to 4.4 | first-order kinetics | No significant difference | 101 | 98 | 100 | 103 | 87 | 100 | Cmax ([1]; in vivo, human urine, single oral dose 50 mg ecdysterone, mean ± SD of 12 subjects (14-deoxy-poststerone n = 5), read-out: Cmax (maximum urinary concentration)): 12100 ± 9200 ng/mL; half-life ([1]; in vivo, human urine, single oral dose 50 mg ecdysterone, mean ± SD of 12 subjects (14-deoxy-poststerone n = 5), read-out: Half Life, Rate of Excretion method (converted)): 3.4 ± 1 h; half-life ([1]; in vivo, human urine, single oral dose 50 mg ecdysterone, mean ± SD of 12 subjects (14-deoxy-poststerone n = 5), read-out: Half Life, Sigma-Minus method (converted)): 3 ± 1 h; Cmax ([1]; in vivo, human urine, single oral dose 50 mg ecdysterone, range over subjects, read-out: Maximum urinary concentration (Cmax), range over subjects): 4400 to 30000 ng/mL; half-life ([1]; in vivo, human urine, single oral dose 50 mg ecdysterone, read-out: Urinary half-life (approximate) (converted)): ~3 h; Tmax ([1]; in vivo, human urine, single oral dose 50 mg ecdysterone, mean ± SD of 12 subjects (14-deoxy-poststerone n = 5)): 4.6 ± 1.8 h; Time at which cumulative urinary excretion reaches a plateau ([1]; human urine, post-dosage): 12 h; First detection in urine after administration [1, 5]: 45 min; Kinetics of urinary elimination ([1]; listed as ecdysterone): first-order; Stability% [2, 13]: 104%; Stability% [2, 14]: 100%; Stability% ([2]; LQC, freeze-thaw 3 cycles): 111%; Stability% [2, 15]: 94%
2 | CC(C)(O)CC[C@@H](O)[C@](C)(O)[C@H]1CC[C@H]2C3=CC(=O)[C@@H]4C[C@@H](O)[C@@H](O)C[C@]4(C)[C@H]3CC[C@]12C [14-deoxy-ecdysterone, Alpha-14-deoxy-ecdysterone] | all 12 subjects | 2.3 | 0.4–6.1% | about 3 days | 75 | three | 0.1 ± 0.1 | 17.5 ± 7.0 | 1.1 ± 0.9 | 0.02 to 0.24 | 8.5 to 39.5 h and 8.5 to 39.50 h | 10.1 to 29.5 | first-order kinetics | No significant difference | 101 | 100 | 101 | 103 | 87 | 103 | Cmax [1, 16]: 1400 ± 1600 ng/mL; half-life [1, 17]: 3.1 ± 1.3 h; half-life [1, 18]: 2.2 ± 0.9 h; Cmax [1, 19]: 100 to 6000 ng/mL; half-life ([1]; urine, human urine, single oral dose 50 mg ecdysterone, read-out: Urinary half-life (approximate) (converted)): ~3 h; Tmax [1, 6]: 19.7 ± 8.9 h; First detection in urine after administration (start of detection window) [1, 5]: 2.95 h; Time at which cumulative urinary excretion reaches a plateau ([1]; in 58.3% of subjects): 25 to 40 h; Time at which cumulative urinary excretion reaches a plateau ([1]; in the remaining 16.6% of subjects): 40 to 62 h; Stability% [2, 13]: 101%; Stability% [2, 14]: 97%; Stability% ([2]; LQC, freeze-thaw 3 cycles): 110%; Stability% [2, 15]: 91%
3 | CC(=O)[C@H]1CC[C@H]2C3=CC(=O)[C@@H]4C[C@@H](O)[C@@H](O)C[C@]4(C)[C@H]3CC[C@]12C [14-deoxy-poststerone, alpha-14-deoxy-poststerone] | 10 out of 12 | 1.5 | 0.01–4.9% | about 4 days | 97 |  | 0.1 ± 0.1 | 27.8 ± 3.7 | 0.7 ± 1.1 |  | 23.3 to 41.3 h |  |  | significant difference |  |  |  |  |  |  | Cmax [1, 16]: 800 ± 700 ng/mL; half-life [1, 17]: 9.7 ± 9.5 h; half-life [1, 18]: 4.4 ± 1 h; Cmax [1, 19]: 100 to 1500 ng/mL; Tmax [1, 6]: 30.1 ± 7.2 h; First detection in urine after administration (start of detection window) [1, 5]: 8.50 h
